Reference: article PMC4303209, “A novel phosphatidylinositol 3-kinase (PI3K) inhibitor directs a potent FOXO-dependent, p53-independent cell cycle arrest phenotype characterized by the differential induction of a subset of FOXO-regulated genes” (Breast Cancer Research : BCR, 2014)

Test system: MCF-7 breast cancer cells
Experiment: Microarray gene expression analysis (Agilent whole human genome 4 x 44K; compound vs DMSO, LIMMA log2 fold change)
Format: cell-based

Cn1ncc2c(N3CCOCC3)nc(-c3cccc(O)c3)nc21 [ETP-45658]
EYA1 log2FC (gene EYA1 (2138), apoptosis genes): 0.012 | log2FC EYA1 (gene EYA1 (Gene 2138), cell cycle genes): 0.012 | FABP1 log2FC (gene FABP1 (2168), apoptosis genes): 0.009 | FAIM2 log2FC (gene FAIM2 (23017), apoptosis genes): -0.062 | FAM3B log2FC (gene FAM3B (54097), apoptosis genes): -0.028 | FAM32A log2FC (gene FAM32A (26017), apoptosis genes): -0.032 | log2FC FAM32A (gene FAM32A (Gene 26017), cell cycle genes): -0.032 | log2FC (gene FAM58A (Gene 92002), cell cycle genes): 0.217 | FAS log2FC (gene FAS (355), apoptosis genes): -0.032 | log2FC (gene FBXL15 (Gene 79176), cell cycle genes): 0.209 | log2FC FGFR1OP (gene FGFR1OP (Gene 11116), cell cycle genes): -0.035 | FIS1 log2FC (gene FIS1 (51024), apoptosis genes): -0.018 | FKSG2 log2FC (gene FKSG2 (59347), apoptosis genes): 0.133 | log2FC (gene FMN2 (Gene 56776), cell cycle genes): 0.105 | FOXB1 log2FC (gene FOXB1 (27023), apoptosis genes): -0.340 | log2FC (gene FSD1 (Gene 79187), cell cycle genes): -0.401 | GADD45G log2FC (gene GADD45G (10912), apoptosis genes): -0.067 | GAPDH log2FC (gene GAPDH (2597), apoptosis genes): -0.037 | log2FC (gene GAS2L1 (Gene 10634), cell cycle genes): -0.313 | log2FC GAS2L2 (gene GAS2L2 (Gene 246176), cell cycle genes): -0.00355 | GAS6 log2FC (gene GAS6 (2621), apoptosis genes): -0.052 | GATA6 log2FC (gene GATA6 (2627), apoptosis genes): -0.019 | log2FC GATA6 (gene GATA6 (Gene 2627), cell cycle genes): -0.019 | GCG log2FC (gene GCG (2641), apoptosis genes): 0.020 | GCLM log2FC (gene GCLM (2730), apoptosis genes): -0.092 | GCM2 log2FC (gene GCM2 (9247), apoptosis genes): -0.015 | log2FC (gene GEM (Gene 2669), cell cycle genes): 0.406 | GFRAL log2FC (gene GFRAL (389400), apoptosis genes): 0.017 | GHRL log2FC (gene GHRL (51738), apoptosis genes): -0.012 | GIMAP5 log2FC (gene GIMAP5 (55340), apoptosis genes): 0.026 | GJB6 log2FC (gene GJB6 (10804), apoptosis genes): -0.056 | log2FC (gene GOLGA2 (Gene 2801), cell cycle genes): 0.210 | log2FC (gene GORASP1 (Gene 64689), cell cycle genes): 0.146 | log2FC (gene GORASP2 (Gene 26003), cell cycle genes): -0.256 | GPI log2FC (gene GPI (2821), apoptosis genes): -0.083 | GPR65 log2FC (gene GPR65 (8477), apoptosis genes): 0.021 | GRK1 log2FC (gene GRK1 (6011), apoptosis genes): -0.013 | log2FC (gene GTPBP8 (Gene 29083), cell cycle genes): 0.316 | log2FC (gene GTSE1 (Gene 51512), cell cycle genes): -0.374 | log2FC H1FOO (gene H1FOO (Gene 132243), cell cycle genes): 0.014 | HCLS1 log2FC (gene HCLS1 (3059), apoptosis genes): 0.022 | log2FC (gene HELLS (Gene 3070), cell cycle genes): 0.388 | HIPK3 log2FC (gene HIPK3 (10114), apoptosis genes): 0.006 | log2FC HORMAD2 (gene HORMAD2 (Gene 150280), cell cycle genes): 0.014 | log2FC HPGD (gene HPGD (Gene 3248), cell cycle genes): 0.013 | HPN log2FC (gene HPN (3249), apoptosis genes): -0.022 | HTRA2 log2FC (gene HTRA2 (27429), apoptosis genes): 0.031 | log2FC HTRA2 (gene HTRA2 (Gene 27429), cell cycle genes): 0.031 | IFI6 log2FC (gene IFI6 (2537), apoptosis genes): 0.041 | IFNA2 log2FC (gene IFNA2 (3440), apoptosis genes): -0.017 | IFNB1 log2FC (gene IFNB1 (3456), apoptosis genes): 0.00571 | IL1A log2FC (gene IL1A (3552), apoptosis genes): -0.044 | IL2RA log2FC (gene IL2RA (3559), apoptosis genes): -0.031 | IL2RB log2FC (gene IL2RB (3560), apoptosis genes): 0.014 | IL12A log2FC (gene IL12A (3592), apoptosis genes): 0.00544 | log2FC IL12A (gene IL12A (Gene 3592), cell cycle genes): 0.00544 | IL12B log2FC (gene IL12B (3593), apoptosis genes): -0.025 | IL17A log2FC (gene IL17A (3605), apoptosis genes): -0.016 | IL19 log2FC (gene IL19 (29949), apoptosis genes): -0.00458 | ILK log2FC (gene ILK (3611), apoptosis genes): -0.066 | log2FC ILKAP (gene ILKAP (Gene 80895), cell cycle genes): 0.002 | INSL6 log2FC (gene INSL6 (11172), apoptosis genes): 0.055 | ISL1 log2FC (gene ISL1 (3670), apoptosis genes): -0.036 | ITGA6 log2FC (gene ITGA6 (3655), apoptosis genes): -0.050 | ITGB2 log2FC (gene ITGB2 (3689), apoptosis genes): -0.075 | ITM2C log2FC (gene ITM2C (81618), apoptosis genes): -0.082 | log2FC KATNB1 (gene KATNB1 (Gene 10300), cell cycle genes): 0.014 | log2FC KCNA5 (gene KCNA5 (Gene 3741), cell cycle genes): -0.012 | KDR log2FC (gene KDR (3791), apoptosis genes): -0.026 | log2FC (gene KIAA0101 (Gene 9768), cell cycle genes): 0.294 | KIAA1324 log2FC (gene KIAA1324 (57535), apoptosis genes): -0.008 | log2FC KIF2B (gene KIF2B (Gene 84643), cell cycle genes): -0.018 | log2FC (gene KIF13A (Gene 63971), cell cycle genes): 0.190 | log2FC (gene KIF23 (Gene 9493), cell cycle genes): 0.530 | log2FC KIF25 (gene KIF25 (Gene 3834), cell cycle genes): -0.013 | KLF4 log2FC (gene KLF4 (9314), apoptosis genes): -0.009 | KRT20 log2FC (gene KRT20 (54474), apoptosis genes): -0.037 | LALBA log2FC (gene LALBA (3906), apoptosis genes): 0.031 | log2FC LATS1 (gene LATS1 (Gene 9113), cell cycle genes): 0.043 | log2FC (gene LATS2 (Gene 26524), cell cycle genes): 0.213 | LCMT1 log2FC (gene LCMT1 (51451), apoptosis genes): -0.115 | LCN2 log2FC (gene LCN2 (3934), apoptosis genes): 0.046 | log2FC (gene LEMD3 (Gene 23592), cell cycle genes): 0.294 | LGALS1 log2FC (gene LGALS1 (3956), apoptosis genes): 0.017 | LGALS12 log2FC (gene LGALS12 (85329), apoptosis genes): 0.013 | LGALS14 log2FC (gene LGALS14 (56891), apoptosis genes): -0.009 | log2FC (gene LMNA (Gene 4000), cell cycle genes): -0.311 | LRP1 log2FC (gene LRP1 (4035), apoptosis genes): 0.0019 | log2FC (gene LRP6 (Gene 4040), cell cycle genes): -0.141 | log2FC (gene LSM11 (Gene 134353), cell cycle genes): 0.145 | LTA log2FC (gene LTA (4049), apoptosis genes): -0.039 | LTF log2FC (gene LTF (4057), apoptosis genes): 0.011 | MAD2L1 log2FC (gene MAD2L1 (4085), apoptosis genes): 0.081 | MAEL log2FC (gene MAEL (84944), apoptosis genes): -0.018 | log2FC MAEL (gene MAEL (Gene 84944), cell cycle genes): -0.018 | MAGED1 log2FC (gene MAGED1 (9500), apoptosis genes): -0.026 | MAGEH1 log2FC (gene MAGEH1 (28986), apoptosis genes): -0.040 | MAP2K5 log2FC (gene MAP2K5 (5607), apoptosis genes): -0.077 | MAP2K7 log2FC (gene MAP2K7 (5609), apoptosis genes): 0.020 | log2FC (gene MAP3K8 (Gene 1326), cell cycle genes): 0.390 | log2FC (gene MAP4 (Gene 4134), cell cycle genes): -0.267 | MAPK1 log2FC (gene MAPK1 (5594), apoptosis genes): -0.045 | log2FC (gene MAPK4 (Gene 5596), cell cycle genes): -0.157 | log2FC (gene MAPK6 (Gene 5597), cell cycle genes): 0.270 | MAPK8 log2FC (gene MAPK8 (5599), apoptosis genes): 0.027 | MAPK9 log2FC (gene MAPK9 (5601), apoptosis genes): 0.064 | log2FC (gene MAPK12 (Gene 6300), cell cycle genes): -0.374 | MAPT log2FC (gene MAPT (4137), apoptosis genes): -0.024 | log2FC MCM4 (gene MCM4 (Gene 4173), cell cycle genes): 0.015 | MDM4 log2FC (gene MDM4 (4194), apoptosis genes): 0.064 | log2FC (gene MED25 (Gene 81857), cell cycle genes): -0.377 | MKL1 log2FC (gene MKL1 (57591), apoptosis genes): 0.068 | MKNK1 log2FC (gene MKNK1 (8569), apoptosis genes): -0.00243 | MNDA log2FC (gene MNDA (4332), apoptosis genes): -0.056 | MSX2 log2FC (gene MSX2 (4488), apoptosis genes): 0.054 | MT3 log2FC (gene MT3 (4504), apoptosis genes): -0.266 | log2FC (gene MYOG (Gene 4656), cell cycle genes): -0.210 | NACA log2FC (gene NACA (4666), apoptosis genes): 0.023 | log2FC NANOG (gene NANOG (Gene 79923), cell cycle genes): -0.00653 | log2FC (gene NASP (Gene 4678), cell cycle genes): 0.392 | NCF1 log2FC (gene NCF1 (653361), apoptosis genes): -0.052 | NCF2 log2FC (gene NCF2 (4688), apoptosis genes): -0.027 | log2FC (gene NCOR1 (Gene 9611), cell cycle genes): 0.294 | NDUFS3 log2FC (gene NDUFS3 (4722), apoptosis genes): -0.101 | NEURL log2FC (gene NEURL (9148), apoptosis genes): -0.034 | NEUROD1 log2FC (gene NEUROD1 (4760), apoptosis genes): -0.043 | log2FC NEUROG1 (gene NEUROG1 (Gene 4762), cell cycle genes): 0.161 | NLE1 log2FC (gene NLE1 (54475), apoptosis genes): 0.057 | NME6 log2FC (gene NME6 (10201), apoptosis genes): -0.008 | log2FC NME6 (gene NME6 (Gene 10201), cell cycle genes): -0.008 | NOS1AP log2FC (gene NOS1AP (9722), apoptosis genes): 0.022 | NOTCH1 log2FC (gene NOTCH1 (4851), apoptosis genes): -0.090 | NOX5 log2FC (gene NOX5 (79400), apoptosis genes): -0.012 | log2FC NOX5 (gene NOX5 (Gene 79400), cell cycle genes): -0.012 | NTRK1 log2FC (gene NTRK1 (4914), apoptosis genes): -0.014 | log2FC (gene NUMA1 (Gene 4926), cell cycle genes): -0.415 | log2FC (gene NUP153 (Gene 9972), cell cycle genes): -0.238 | log2FC NUP155 (gene NUP155 (Gene 9631), cell cycle genes): -0.034 | log2FC (gene NUP188 (Gene 23511), cell cycle genes): -0.304 | NUPR1 log2FC (gene NUPR1 (26471), apoptosis genes): 0.023 | OSR1 log2FC (gene OSR1 (130497), apoptosis genes): -0.039 | P4HB log2FC (gene P4HB (5034), apoptosis genes): 0.022 | log2FC (gene PA2G4 (Gene 5036), cell cycle genes): -0.298 | PAFAH2 log2FC (gene PAFAH2 (5051), apoptosis genes): 0.046 | PAK6 log2FC (gene PAK6 (56924), apoptosis genes): -0.022 | log2FC PAK6 (gene PAK6 (Gene 56924), cell cycle genes): -0.022 | log2FC (gene PAPD5 (Gene 64282), cell cycle genes): 0.341 | PARK7 log2FC (gene PARK7 (11315), apoptosis genes): 0.028 | PAX2 log2FC (gene PAX2 (5076), apoptosis genes): 0.003 | log2FC PCNA (gene PCNA (Gene 5111), cell cycle genes): -0.00322 | PCSK9 log2FC (gene PCSK9 (255738), apoptosis genes): -0.039 | log2FC PDCD2L (gene PDCD2L (Gene 84306), cell cycle genes): 0.012 | PDCD5 log2FC (gene PDCD5 (9141), apoptosis genes): 0.123 | PDCL3 log2FC (gene PDCL3 (79031), apoptosis genes): -0.100 | PDE1B log2FC (gene PDE1B (5153), apoptosis genes): 0.004 | PDE3A log2FC (gene PDE3A (5139), apoptosis genes): -0.006 | log2FC PDE3A (gene PDE3A (Gene 5139), cell cycle genes): -0.006
